From US20230041563A1, “N-(1,3,4-OXADIAZOL-2-YL)ARYLCARBOXAMIDES OR SALTS THEREOF, PREPARATION METHODS, HERBICIDAL COMPOSITIONS AND USES THEREOF” (priority 2018, published 2023)

Experiments:
Rice = test: Transplanted rice safety evaluation and weed control effect evaluation in rice field; format: in vivo, rice (japonica rice/Indica rice); details: Table 7, dose 125 g a.i./ha, 21 days after treatment
Experimental: (§1) Transplanted rice safety evaluation and weed control effect evaluation in rice field:
In addition, the rice field soil that loaded into the 1/1,000,000 ha pot was leveled to keep water storage at 3-4 cm depth. The 3 leaf stage rice (japonica rice/Indica rice) was transplanted at 3 cm of transplanting depth the next day. The compound of the present invention was treated by the same way after 5 days of transplantation.
(§2) The fertility condition of echinochloa crusgali, scirpus juncoides, Bidens tripartita, Leptochloa chinensis, Sagittaria trifolia and Monochoria vaginalis 14 days after the treatment of the compound of the invention and the fertility condition of rice 21 days after the treatment of the compound of the invention respectively with the naked eye. Evaluate the weed control effect with 0-5 activity standard level. Many compounds show excellent activity and selectivity.

Echinochloa crusgalli = test: Weeding effect in post-emergence stage (greenhouse pot spray); format: in vivo
In short: (§3)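 Pot-grown greenhouse plants, 2-3 leaf stage; spray-tower application; formulation acetone/Tween 80 plus methyl oleate EC 1.5 liter/ha as synergist; rates 500, 250, 125, 60, 15 g a.i./ha; assessed 3 wk post-treatment as fresh weight control, n=3.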

Abutilon theophrasti = test: as above; format: in vivo; details: for Abutilon theophrasti (activity level): Table 3, dose 60 g a.i./ha
In short: as §3

Digitaria sanguinalis = test: as above; format: in vivo; details: for Digitaria sanguinahs (activity level): Table 3, dose 60 g a.i./ha
In short: as §3

Monochoria vaginalis = test: Transplanted rice safety evaluation and weed control effect evaluation in rice field; format: in vivo; details: Table 7, dose 125 g a.i./ha, 14 days after treatment
Text: as §1
(§4) Rice field soil was loaded into a 1/1,000,000 ha pot. The seeds of echinochloa crusgali, scirpus juncoides, Bidens tripartita, Sagittaria trifolia, Monochoria vaginalis and Leptochloa chinensis were sowed and gently covered with soil, then left to stand still in greenhouse in the state of 0.5-1 cm of water storage. The tuber of Sagittaria trifolia was planted in the next day or 2 days later. It was kept at 3-4 cm of water storage thereafter. The weeds were treated by dripping the WP or SC water diluents prepared according to the common preparation method of the compounds of the present invention with pipette homogeneously to achieve specified effective amount when echinochloa crusgali, scirpus juncoides, Bidens tripartita, Monochoria vaginalis and Leptochloa chinensis reached 0.5 leaf stage and Sagittaria trifolia reached the time point of primary leaf stage.
as §2

Echinochloa crusgali = test: as above; format: in vivo; details: Table 7, dose 125 g a.i./ha, 14 days after treatment
Text: as §1, §4, §2

Scirpus juncoides = test: as above; format: in vivo; details: Table 7, dose 125 g a.i./ha, 14 days after treatment
Text: as §1, §4, §2

Amaranthus retroflexus = test: Weeding effect in post-emergence stage (greenhouse pot spray); format: in vivo
In short: as §3

Stellaria media = test: as above; format: in vivo
In short: as §3

[1] = tested on: Japonica rice (Huaidao No. 5); test: Safety test of control experiments on rice; format: in vivo; details: Dose 250 g a.i./ha
Text: (§5) The activity level criteria for plant damage (i.e., growth control rate) are as follows: Comparative Experiments: [table]

[2] = tested on: Indica rice (Huanghuazhan); test: Safety test of control experiments on rice; format: in vivo; details: Dose 250 g a.i./ha
Text: as §5

Setaria viridis = test: Weeding effect in post-emergence stage (greenhouse pot spray); format: in vivo; details: Table 3, dose 60 g a.i./ha
In short: as §3

[3] = tested on: rice and Echinochloa crusgali; test: Herbicide selection index between rice and Echinochloa crusgali; format: in vivo; details: average dose causing 10% phytotoxicity to rice divided by average dose causing 90% control efficiency to Echinochloa crusgali

Structure (SMILES) | Rice (safety level) (Rice) | Echinochloa crusgah (activity level) (Echinochloa crusgalli; Table 2, dose 250 g a.i./ha) | Abutilion theophrasti (activity level) (Abutilon theophrasti; Table 2, dose 250 g a.i./ha) | Digitaria sanguinalis (activity level) (Digitaria sanguinalis; Table 2, dose 250 g a.i./ha) | Monochoria vaginalis (activity level) (Monochoria vaginalis) | Echinochloa crusgali (activity level) (Echinochloa crusgali) | Scirpus juncoides (activity level) (Scirpus juncoides) | Amaranthus retroflexus (activity level) (Amaranthus retroflexus; Table 2, dose 250 g a.i./ha) | Stellaria media (activity level) (Stellaria media; Table 2, dose 250 g a.i./ha) | Japonica rice (Huaidao No. 5) (plant damage level) [1] | Indica rice (Huanghuazhan) (plant damage level) [2] | Selection index between rice and Echinochloa crusgali [3] | Echinochloa crusgah (activity level) (Echinochloa crusgalli; Table 2, dose 500 g a.i./ha) | Abutilion theophrasti (activity level) (Abutilon theophrasti; Table 2, dose 500 g a.i./ha) | Digitaria sanguinalis (activity level) (Digitaria sanguinalis; Table 2, dose 500 g a.i./ha) | Amaranthus retroflexus (activity level) (Amaranthus retroflexus; Table 2, dose 500 g a.i./ha) | Stellaria media (activity level) (Stellaria media; Table 2, dose 500 g a.i./ha) | also measured
Cc1nnc(NC(=O)c2ccc(C(F)(F)F)c([S+]([O-])C(C)C)c2F)o1 (racemic) [Compound 1-11] | 0 (Level 0: growth control rate is less than 5%) | 5 (Level 5: growth control rate is above 85%) | 5 (Level 5: growth control rate is above 85%) | 5 (Level 5: growth control rate is above 85%) | 5 (Level 5: growth control rate is above 85%) | 5 (Level 5: growth control rate is above 85%) | 5 (Level 5: growth control rate is above 85%) | 5 (Level 5: growth control rate is above 85%) | 5 (Level 5: growth control rate is above 85%) | – | – | – | – | – | – | – | – | –
Cc1nnc(NC(=O)c2ccc(C(F)(F)F)c([S+]([O-])CC(C)C)c2F)o1 (racemic) [Compound 1-20] | – | 5 (Level 5: growth control rate is above 85%) | 5 (Level 5: growth control rate is above 85%) | 5 (Level 5: growth control rate is above 85%) | – | – | – | 5 (Level 5: growth control rate is above 85%) | 5 (Level 5: growth control rate is above 85%) | 0 (Level 0: growth control rate is less than 5%) | 0 (Level 0: growth control rate is less than 5%) | >5 | – | – | – | – | – | Setaria viridis (activity level) (Setaria viridis): 5 (Level 5: growth control rate is above 85%); Abutilon theophrasti (activity level) (Abutilon theophrasti): 5 (Level 5: growth control rate is above 85%); Digitaria sanguinahs (activity level) (Digitaria sanguinalis): 5 (Level 5: growth control rate is above 85%)
Cc1nnc(NC(=O)c2ccc(C(F)(F)F)c([S+]([O-])CCC(F)(F)F)c2F)o1 (racemic) [Compound 1-52] | – | – | – | – | – | – | – | – | – | 0 (Level 0: growth control rate is less than 5%) | 0 (Level 0: growth control rate is less than 5%) | >5 | 5 (Level 5: growth control rate is above 85%) | 5 (Level 5: growth control rate is above 85%) | 5 (Level 5: growth control rate is above 85%) | 5 (Level 5: growth control rate is above 85%) | 5 (Level 5: growth control rate is above 85%) | Setaria viridis (activity level) (Setaria viridis): 5 (Level 5: growth control rate is above 85%); Abutilon theophrasti (activity level) (Abutilon theophrasti): 5 (Level 5: growth control rate is above 85%); Digitaria sanguinahs (activity level) (Digitaria sanguinalis): 5 (Level 5: growth control rate is above 85%)
COCC[S+]([O-])c1c(C(F)(F)F)ccc(C(=O)Nc2nnc(C)o2)c1F (racemic) [Compound 1-57] | 0 (Level 0: growth control rate is less than 5%) | – | – | – | 5 (Level 5: growth control rate is above 85%) | 5 (Level 5: growth control rate is above 85%) | 5 (Level 5: growth control rate is above 85%) | – | – | 0 (Level 0: growth control rate is less than 5%) | 0 (Level 0: growth control rate is less than 5%) | >5 | 5 (Level 5: growth control rate is above 85%) | 5 (Level 5: growth control rate is above 85%) | 5 (Level 5: growth control rate is above 85%) | 5 (Level 5: growth control rate is above 85%) | 5 (Level 5: growth control rate is above 85%) | –
CCS(=O)(=O)c1c(C(F)(F)F)ccc(C(=O)Nc2nnc(C)o2)c1F [Compound 1-6] | 0 (Level 0: growth control rate is less than 5%) | 5 (Level 5: growth control rate is above 85%) | 5 (Level 5: growth control rate is above 85%) | 5 (Level 5: growth control rate is above 85%) | 5 (Level 5: growth control rate is above 85%) | 5 (Level 5: growth control rate is above 85%) | 5 (Level 5: growth control rate is above 85%) | 5 (Level 5: growth control rate is above 85%) | 5 (Level 5: growth control rate is above 85%) | 0 (Level 0: growth control rate is less than 5%) | 0 (Level 0: growth control rate is less than 5%) | >5 | – | – | – | – | – | Echinochloa crusgah (activity level) (Echinochloa crusgalli; Table 2, dose 125 g a.i./ha): 5 (Level 5: growth control rate is above 85%); Abutilion theophrasti (activity level) (Abutilon theophrasti; Table 2, dose 125 g a.i./ha): 5 (Level 5: growth control rate is above 85%); Digitaria sanguinalis (activity level) (Digitaria sanguinalis; Table 2, dose 125 g a.i./ha): 5 (Level 5: growth control rate is above 85%); Amaranthus retroflexus (activity level) (Amaranthus retroflexus; Table 2, dose 125 g a.i./ha): 5 (Level 5: growth control rate is above 85%); Stellaria media (activity level) (Stellaria media; Table 2, dose 125 g a.i./ha): 5 (Level 5: growth control rate is above 85%)
CCCCSc1c(C(F)(F)F)ccc(C(=O)Nc2nnc(C)o2)c1F [Compound 1-13] | – | 5 (Level 5: growth control rate is above 85%) | 5 (Level 5: growth control rate is above 85%) | 5 (Level 5: growth control rate is above 85%) | – | – | – | 5 (Level 5: growth control rate is above 85%) | 5 (Level 5: growth control rate is above 85%) | 0 (Level 0: growth control rate is less than 5%) | 0 (Level 0: growth control rate is less than 5%) | >5 | – | – | – | – | – | –
Cc1nnc(NC(=O)c2ccc(C(F)(F)F)c(SC3CC3)c2F)o1 [Compound 1-76] | 0 (Level 0: growth control rate is less than 5%) | – | – | – | 5 (Level 5: growth control rate is above 85%) | 5 (Level 5: growth control rate is above 85%) | 5 (Level 5: growth control rate is above 85%) | – | – | – | – | – | – | – | – | – | – | –
Cc1nnc(NC(=O)c2ccc(C(F)(F)F)c([S+]([O-])C3COC3)c2F)o1 (centres unmarked) [Compound 1-82] | – | – | – | – | – | – | – | – | – | 0 (Level 0: growth control rate is less than 5%) | 0 (Level 0: growth control rate is less than 5%) | >5 | 5 (Level 5: growth control rate is above 85%) | 5 (Level 5: growth control rate is above 85%) | 5 (Level 5: growth control rate is above 85%) | 5 (Level 5: growth control rate is above 85%) | 5 (Level 5: growth control rate is above 85%) | –
